In this test the target is T1, Recombinant human CBP containing the bromodomain (CBP-BD (1043-1159)) (Homo sapiens, UniProt Q92793).
T1 construct: Recombinant human CBP bromodomain (CBP-BD (1043-1159)); made in house; host or cells: E. coli BL21-CodonPlus (DE3), modified pET vector
Description: CBP Alphascreen binding assay. The conditions noted are these: read-out: CREBBP (CBP) IC50. In short, it runs like this: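 Buffer: 50 mM HEPES pH 7.5, 50 mM NaCl, 0.01% BSA, 0.01% Triton X-100, 2 mM DTT. The signal was normalised to plate controls and fitted with a four-parameter curve to give IC50.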
In general terms: In Alpha technology, singlet oxygen from a donor bead excites a nearby acceptor bead.

Results on 21 molecules are retold here after US11446287B2, “Compounds and methods for EP300 or CBP modulation and indications therefor” (Opna Immuno-Oncology SA, priority 2019, dated 2022).

For orientation: IC50 means the concentration that inhibits the measured activity by half.

T1 sequence (Q92793 1081-1197): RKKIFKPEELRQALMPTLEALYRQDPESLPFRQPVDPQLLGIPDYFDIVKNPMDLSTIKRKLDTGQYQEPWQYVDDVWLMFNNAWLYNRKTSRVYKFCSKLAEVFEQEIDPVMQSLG

In the case of `COc1ncc(-n2cc(-c3ccc(C(=O)O)cc3OC(F)(F)F)c3cc(-c4c(C)noc4C)cnc32)cn1` [P-0392, 4-(5-(3,5-dimethylisoxazol-4-yl)-1-(2-methoxypyrimidin-5-yl)-1H-pyrrolo[2,3-b]pyridin-3-yl)-3-(trifluoromethoxy)benzoic acid], the concentration for half-maximal inhibition (IC50) was in the range of 0.0001 to 1 µM.

Regarding `Cc1noc(C)c1-c1cnc2c(c1)c(-c1c(Cl)cc(C(=O)O)cc1OC(C)C)cn2-c1cnc(C2CC2)nc1` [P-0393, 3-chloro-4-(1-(2-cyclopropylpyrimidin-5-yl)-5-(3,5-dimethylisoxazol-4-yl)-1H-pyrrolo[2,3-b]pyridin-3-yl)-5-isopropoxybenzoic acid], the half-maximal inhibitory concentration (IC50) lay in the range of 0.0001 to 1 µM.

As to `Cc1noc(C)c1-c1cnc2c(c1)c(-c1c(F)cc(C(=O)O)cc1OC1CC1)cn2C(C1CC1)C1CC1` [P-0394, 3-cyclopropoxy-4-(1-(dicyclopropylmethyl)-5-(3,5-dimethylisoxazol-4-yl)-1H-pyrrolo[2,3-b]pyridin-3-yl)-5-fluorobenzoic acid], the IC50 was in the range of 0.0001 to 1 µM.

For the molecule `Cc1noc(C)c1-c1cnc2c(c1)c(-c1c(Cl)cc(C(=O)O)cc1OC(F)(F)F)cn2-c1ncccc1C#N` [P-0395, 3-chloro-4-(1-(3-cyanopyridin-2-yl)-5-(3,5-dimethylisoxazol-4-yl)-1H-pyrrolo[2,3-b]pyridin-3-yl)-5-(trifluoromethoxy)benzoic acid], the IC50 was 0.0001 to 1 µM.

Take `Cc1noc(C)c1-c1cnc2c(c1)c(-c1c(Cl)cc(C(=O)O)cc1OC1CCC1)cn2-c1ncccc1C#N` [P-0396, 3-chloro-4-(1-(3-cyanopyridin-2-yl)-5-(3,5-dimethylisoxazol-4-yl)-1H-pyrrolo[2,3-b]pyridin-3-yl)-5-cyclobutoxybenzoic acid]: the concentration for half-maximal inhibition (IC50) was 0.0001 to 1 µM.

As to `Cc1noc(C)c1-c1cnc2c(c1)c(-c1c(F)cc(C(=O)O)cc1OC1CC1)cn2C1CCOCC1` [P-0397, 3-cyclopropoxy-4-(5-(3,5-dimethylisoxazol-4-yl)-1-(tetrahydro-2H-pyran-4-yl)-1H-pyrrolo[2,3-b]pyridin-3-yl)-5-fluorobenzoic acid], the concentration for half-maximal inhibition (IC50) was in the range of 0.0001 to 1 µM.

For the molecule `CCOc1nc(C(=O)O)c(Cl)cc1-c1cn(C2CCOCC2)c2ncc(-c3c(C)noc3C)cc12` [P-0398, 3-chloro-5-(5-(3,5-dimethylisoxazol-4-yl)-1-(tetrahydro-2H-pyran-4-yl)-1H-pyrrolo[2,3-b]pyridin-3-yl)-6-ethoxypicolinic acid], the concentration for half-maximal inhibition (IC50) is 0.0001 to 1 µM.

Consider `Cc1noc(C)c1-c1cnc2c(c1)c(-c1ccc(C(=O)O)cc1OC(F)(F)F)cn2-c1ccc(=O)n(C)c1` [P-0399, 4-(5-(3,5-dimethylisoxazol-4-yl)-1-(1-methyl-6-oxo-1,6-dihydropyridin-3-yl)-1H-pyrrolo[2,3-b]pyridin-3-yl)-3-(trifluoromethoxy)benzoic acid], for which the 50% inhibitory concentration (IC50) was in the range of 0.0001 to 1 µM.

As to `CCc1noc(C)c1-c1cnc2c(c1)c(-c1ccc(C(=O)O)cc1OC(F)(F)F)cn2C1CCOCC1` [P-0400, 4-(5-(3-ethyl-5-methylisoxazol-4-yl)-1-(tetrahydro-2H-pyran-4-yl)-1H-pyrrolo[2,3-b]pyridin-3-yl)-3-(trifluoromethoxy)benzoic acid], the IC50 was in the range of 0.0001 to 1 µM.

For the molecule `CCc1onc(C)c1-c1cnc2c(c1)c(-c1ccc(C(=O)O)cc1OC(F)(F)F)cn2C1CCOCC1` [P-0401, 4-(5-(5-ethyl-3-methylisoxazol-4-yl)-1-(tetrahydro-2H-pyran-4-yl)-1H-pyrrolo[2,3-b]pyridin-3-yl)-3-(trifluoromethoxy)benzoic acid], the IC50 was in the range of 0.0001 to 1 µM.

Turning to `Cc1cc(C(=O)O)cc(OC(C)C)c1-c1cn(C2CCOCC2)c2ncc(-c3c(C)noc3C)cc12` [P-0402, 4-(5-(3,5-dimethylisoxazol-4-yl)-1-(tetrahydro-2H-pyran-4-yl)-1H-pyrrolo[2,3-b]pyridin-3-yl)-3-isopropoxy-5-methylbenzoic acid], the concentration for half-maximal inhibition (IC50) was in the range of 0.0001 to 1 µM.

For `Cc1noc(C)c1-c1cnc2c(c1)c(-c1ccc(C(=O)O)cc1OC(C)C)cn2C1(C)CCOCC1` [P-0403, 4-(5-(3,5-dimethylisoxazol-4-yl)-1-(4-methyltetrahydro-2H-pyran-4-yl)-1H-pyrrolo[2,3-b]pyridin-3-yl)-3-isopropoxybenzoic acid], the half-maximal inhibitory concentration (IC50) is 0.0001 to 1 µM.

With `Cc1noc(C)c1-c1cnc2c(c1)c(-c1c(Cl)cc(C(=O)O)cc1OC(C)C)cn2C1(C)CCOCC1` [P-0404, 3-chloro-4-(5-(3,5-dimethylisoxazol-4-yl)-1-(4-methyltetrahydro-2H-pyran-4-yl)-1H-pyrrolo[2,3-b]pyridin-3-yl)-5-isopropoxybenzoic acid], the half-maximal inhibitory concentration (IC50) was in the range of 0.0001 to 1 µM.

As for `CCOc1nc(C(=O)O)ccc1-c1cn(C2(C)CCOCC2)c2ncc(-c3c(C)noc3C)cc12` [P-0405, 5-(5-(3,5-dimethylisoxazol-4-yl)-1-(4-methyltetrahydro-2H-pyran-4-yl)-1H-pyrrolo[2,3-b]pyridin-3-yl)-6-ethoxypicolinic acid], the IC50 is 0.0001 to 1 µM.

Turning to `CCOc1nc(C(=O)O)c(Cl)cc1-c1cn([C@H]2CCOC2)c2ncc(-c3c(C)noc3C)cc12` [P-0406, (S)-3-chloro-5-(5-(3,5-dimethylisoxazol-4-yl)-1-(tetrahydrofuran-3-yl)-1H-pyrrolo[2,3-b]pyridin-3-yl)-6-ethoxypicolinic acid], the IC50 was 0.0001 to 1 µM.

In the case of `Cc1noc(C)c1-c1cnc2c(c1)c(-c1ccc(C(=O)O)cc1OC(C)C)cn2C1(C)CCOC1` (stereo not drawn) [P-0407, 4-(5-(3,5-dimethylisoxazol-4-yl)-1-(3-methyltetrahydrofuran-3-yl)-1H-pyrrolo[2,3-b]pyridin-3-yl)-3-isopropoxybenzoic acid], the 50% inhibitory concentration (IC50) is 0.0001 to 1 µM.

As for `Cc1noc(C)c1-c1cnc2c(c1)c(-c1c(Cl)cc(C(=O)O)cc1OC(C)C)cn2C1(C)CCOC1` (stereo not drawn) [P-0408, 3-chloro-4-(5-(3,5-dimethylisoxazol-4-yl)-1-(3-methyltetrahydrofuran-3-yl)-1H-pyrrolo[2,3-b]pyridin-3-yl)-5-isopropoxybenzoic acid], the IC50 is 0.0001 to 1 µM.

For the molecule `Cc1noc(C)c1-c1cnc2c(c1)c(-c1c(Cl)cc(C(=O)O)cc1OC1CC1)cn2-c1ncccc1C#N` [P-0409, 3-chloro-4-(1-(3-cyanopyridin-2-yl)-5-(3,5-dimethylisoxazol-4-yl)-1H-pyrrolo[2,3-b]pyridin-3-yl)-5-cyclopropoxybenzoic acid], the IC50 was 0.0001 to 1 µM.

Regarding `Cc1noc(C)c1-c1cnc2c(c1)c(-c1c(F)cc(C(=O)O)cc1OC1CCC1)cn2C1CCOCC1` [P-0410, 3-cyclobutoxy-4-(5-(3,5-dimethylisoxazol-4-yl)-1-(tetrahydro-2H-pyran-4-yl)-1H-pyrrolo[2,3-b]pyridin-3-yl)-5-fluorobenzoic acid], the IC50 fell in the range of 0.0001 to 1 µM.

For `CCOc1nc(C(=O)O)cc(C)c1-c1cn(C2CCOCC2)c2ncc(-c3c(C)noc3C)cc12` [P-0411, 5-(5-(3,5-dimethylisoxazol-4-yl)-1-(tetrahydro-2H-pyran-4-yl)-1H-pyrrolo[2,3-b]pyridin-3-yl)-6-ethoxy-4-methylpicolinic acid], the half-maximal inhibitory concentration (IC50) fell in the range of 0.0001 to 1 µM.

For the molecule `CCOc1nc(C(=O)O)cc(C)c1-c1cn(-c2ccc(F)cc2F)c2ncc(-c3c(C)noc3C)cc12` [P-0412, 5-(1-(2,4-difluorophenyl)-5-(3,5-dimethylisoxazol-4-yl)-1H-pyrrolo[2,3-b]pyridin-3-yl)-6-ethoxy-4-methylpicolinic acid], the IC50 was in the range of 0.0001 to 1 µM.
